{"source": "ChEMBL document CHEMBL5052850", "about": "“Compounds and methods targeting qsox1” (2021)", "key": {"786-0 [1]": {"test_system": "786-0", "test": "Antitumor activity in human 786-0 cells xenografted immunodeficient mouse assessed as reduction in tumor growth at 14 mg/kg/day, po", "assay_type": "functional", "conditions": "786-0, po, read-out: TGI"}, "MIA PaCa-2": {"test_system": "MIA PaCa-2", "test": "Antiinvasive activity against human MIA PaCa-2 cells measured spheroid invasion assay", "assay_type": "functional, cell-based"}, "Sulfhydryl oxidase 1": {"target": "T1, Sulfhydryl oxidase 1 (Homo sapiens, UniProt O00391)", "T1 sequence (O00391 whole entry)": "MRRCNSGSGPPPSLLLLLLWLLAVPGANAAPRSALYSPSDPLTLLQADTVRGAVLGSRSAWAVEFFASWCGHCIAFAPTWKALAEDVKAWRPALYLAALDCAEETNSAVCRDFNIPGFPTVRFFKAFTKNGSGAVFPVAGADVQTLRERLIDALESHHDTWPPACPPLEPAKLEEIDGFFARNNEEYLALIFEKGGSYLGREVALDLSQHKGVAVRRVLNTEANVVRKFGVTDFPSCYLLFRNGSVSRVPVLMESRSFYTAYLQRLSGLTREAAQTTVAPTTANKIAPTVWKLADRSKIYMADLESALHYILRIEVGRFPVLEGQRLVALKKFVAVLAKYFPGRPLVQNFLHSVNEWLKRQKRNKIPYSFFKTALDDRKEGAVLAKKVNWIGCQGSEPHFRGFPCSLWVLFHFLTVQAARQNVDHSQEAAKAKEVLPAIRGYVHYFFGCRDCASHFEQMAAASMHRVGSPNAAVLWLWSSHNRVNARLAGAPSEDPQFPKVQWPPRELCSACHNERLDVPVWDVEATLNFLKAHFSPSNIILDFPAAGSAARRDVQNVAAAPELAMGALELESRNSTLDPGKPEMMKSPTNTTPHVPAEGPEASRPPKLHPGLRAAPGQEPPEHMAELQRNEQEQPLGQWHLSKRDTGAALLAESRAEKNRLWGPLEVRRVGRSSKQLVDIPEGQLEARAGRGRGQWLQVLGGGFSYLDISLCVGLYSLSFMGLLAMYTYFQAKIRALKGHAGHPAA", "test": "Binding affinity towards QSOX1 (unknown origin) measured by microscale thermophoresis assay"}, "MCF-10A": {"test_system": "MCF-10A", "test": "Antiinvasive activity against human MCF-10A cells measured spheroid invasion assay", "assay_type": "functional, cell-based"}, "RCJ-41T2": {"test_system": "RCJ-41T2", "test": "Antiinvasive activity against human RCJ-41T2 cells at 156.25 to 1250 uM measured spheroid invasion assay", "assay_type": "functional, cell-based", "conditions": "dose 156.25-1250 µM"}, "MDA-MB-231 [2]": {"test_system": "MDA-MB-231", "test": "Antitumor activity in human MDA-MB-231-Luc cells xenografted immunodeficient mouse assessed as reduction in lung metastasis at 100 mg/kg, po administered for 28 days", "assay_type": "functional", "parameters": "scale not given: the % may be the effect or the level left", "conditions": "time 28 day"}, "786-0 [3]": {"test_system": "786-0", "test": "Antiinvasive activity against human 786-0 cells measured spheroid invasion assay", "assay_type": "functional, cell-based"}, "[4]": {"target": "T2, Sulfhydryl oxidase 1 (Homo sapiens) (UniProt O00391)", "T2 sequence (whole entry)": "T1 sequence (O00391 whole entry)", "test": "Inhibition of QSOX1 (unknown origin) at 6.25 to 50 uM relative to control", "conditions": "dose 6.25-50 µM"}, "MDA-MB-231 [5]": {"test_system": "MDA-MB-231", "test": "Anticancer activity against human MDA-MB-231 cells at 156.25 to 1250 uM assessed as suppression of tumor cell tendrils spreading formation measured by 3D tumor cell spheroid assay", "assay_type": "functional, cell-based", "conditions": "dose 156.25-1250 µM"}, "UOK117": {"test_system": "UOK117", "test": "Antitumor activity in human UOK117 cells xenografted nude mouse assessed as suppression of tumor growth", "assay_type": "functional, cell-based"}}, "note": "Calls of active or inactive are those of the source. The rule behind the calls is not given here.", "data": [{"smiles": "COc1cccc(C(=O)Nc2ccc(N3CCCC3)cc2)c1", "values": [{"measurement": "inhibition in vivo at 14 mg/kg/day", "setting": "786-0 [1]", "value": 51, "unit": "%"}, {"measurement": "Activity", "setting": "MIA PaCa-2", "value": "Active"}, {"measurement": "Kd", "setting": "Sulfhydryl oxidase 1", "value": 20, "unit": "µM"}, {"measurement": "Activity", "setting": "MCF-10A", "value": "Active"}, {"measurement": "Activity", "setting": "RCJ-41T2", "value": "Active"}, {"measurement": "Activity", "setting": "MDA-MB-231 [2]", "value": 76, "unit": "%"}, {"measurement": "Activity", "setting": "786-0 [3]", "value": "Active"}, {"measurement": "inhibition", "setting": "[4]", "value": "Active"}, {"measurement": "Activity", "setting": "MDA-MB-231 [5]", "value": "Active"}, {"measurement": "Activity", "setting": "UOK117", "value": "Active"}]}]}
